Reference: ChEMBL document CHEMBL4265910, “(E)-N-Aryl-2-oxo-2-(3,4,5-trimethoxyphenyl)acetohydrazonoyl cyanides as tubulin polymerization inhibitors: Structure-based bioisosterism design, synthesis, biological evaluation, molecular docking and in silico ADME prediction” (Bioorg Med Chem Lett, 2018)
Each block holds one molecule with its values, some of them ahead of it.

What was measured:
MCF7 [1] = assay: Antiproliferative activity against human MCF7 cells after 72 hrs by MTT assay; format: functional, cell-based; conditions: MCF7, 72 h
HepG2 [2] = assay: Antiproliferative activity against human HepG2 cells after 72 hrs by MTT assay; format: functional, cell-based; conditions: HepG2, 72 h
CHL-1 = assay: Antiproliferative activity against human CHL-1 cells; format: functional, cell-based
HepG2 [3] = assay: Antiproliferative activity against human HepG2 cells; format: functional, cell-based
A2780S = assay: Antiproliferative activity against human A2780S cells; format: functional, cell-based
HT-29 = assay: Antiproliferative activity against human HT-29 cells; format: functional, cell-based
A549 = assay: Antiproliferative activity against human A549 cells; format: functional, cell-based
MCF7 [4] = assay: Antiproliferative activity against human MCF7 cells; format: functional, cell-based
SK-OV-3 = assay: Antiproliferative activity against human SKOV3 cells; format: functional, cell-based
HCT-116 = assay: Antiproliferative activity against human HCT116 cells after 72 hrs by MTT assay; format: functional, cell-based; conditions: HCT-116, 72 h
B16-F10 = assay: Antiproliferative activity against mouse B16F10 cells after 72 hrs by MTT assay; format: functional, cell-based; conditions: B16-F10, 72 h
DU-145 = assay: Antiproliferative activity against human DU145 cells after 72 hrs by MTT assay; format: functional, cell-based; conditions: DU-145, 72 h
[5] = Antiproliferative activity against human HCT8/T cells after 72 hrs by MTT assay; format: functional, cell-based; conditions: HCT-8, 72 h
HeLa = assay: Antiproliferative activity against human HeLa cells after 72 hrs by MTT assay; format: functional, cell-based
MDA-MB-231 = assay: Antiproliferative activity against human MDA-MB-231 cells after 72 hrs by MTT assay; format: functional, cell-based; conditions: MDA-MB-231, 72 h
HepG2 [6] = assay: Cell cycle arrest in human HepG2 cells assessed as accumulation at G2/M phase after 24 hrs by RNase A/propidium iodide staining-based flow cytometric analysis; format: functional
Sus scrofa = species on record: Sus scrofa; assay: (§1) Inhibition of tubulin polymerization in porcine brain assessed as disruption of tubulin assembly by spectrophotometric analysis
[7] = as §1; design: species or system Sus scrofa
HepG2 [8] = assay: Cell cycle arrest in human HepG2 cells assessed as accumulation at G1 phase at 0.5 uM after 24 hrs by RNase A/propidium iodide staining-based flow cytometric analysis (reference value: 50.61%); format: functional
HepG2 [9] = assay: Cell cycle arrest in human HepG2 cells assessed as accumulation at G1 phase at 0.25 uM after 24 hrs by RNase A/propidium iodide staining-based flow cytometric analysis (reference value: 50.61%); format: functional
HepG2 [10] = assay: Cell cycle arrest in human HepG2 cells assessed as accumulation at G2/M phase at 0.25 uM after 24 hrs by RNase A/propidium iodide staining-based flow cytometric analysis (reference value: 21.09%); format: functional
HepG2 [11] = assay: Cell cycle arrest in human HepG2 cells assessed as accumulation at S phase at 0.25 uM after 24 hrs by RNase A/propidium iodide staining-based flow cytometric analysis (reference value: 28.30%); format: functional
HepG2 [12] = assay: Cell cycle arrest in human HepG2 cells assessed as accumulation at G2/M phase at 0.5 uM after 24 hrs by RNase A/propidium iodide staining-based flow cytometric analysis (reference value: 21.09%); format: functional
HepG2 [13] = assay: Cell cycle arrest in human HepG2 cells assessed as accumulation at S phase at 0.5 uM after 24 hrs by RNase A/propidium iodide staining-based flow cytometric analysis (reference value: 28.30%); format: functional

Structure (SMILES): COc1cc(C(=O)/C(C#N)=N/Nc2ccccc2)cc(OC)c1OC
IC50 (MCF7 [1]): 6380 nM
IC50 (HepG2 [2]): 5190 nM

Structure (SMILES): COc1cc(C(=O)/C(C#N)=N/Nc2ccccc2F)cc(OC)c1OC
IC50 (MCF7 [1]): 1690 nM
IC50 (HepG2 [2]): 2100 nM

Structure (SMILES): COc1cc(C(=O)/C(C#N)=N/Nc2ccc(C)cc2)cc(OC)c1OC
IC50 (HCT-116): 870 nM
IC50 (B16-F10): 2230 nM
IC50 (DU-145): 98 nM
IC50 [5]: 7640 nM
IC50 (HeLa): 310 nM
IC50 (MDA-MB-231): 2240 nM
IC50 (MCF7 [1]): 430 nM
IC50 (HepG2 [2]): 610 nM

Structure (SMILES): COc1ccc(N/N=C(\C#N)C(=O)c2cc(OC)c(OC)c(OC)c2)cc1O
IC50 (HCT-116): 810 nM
Activity (HepG2 [6]): Dose-dependent effect
inhibition (Sus scrofa): Dose-dependent effect
IC50 [7]: 900 nM
Activity (HepG2 [8]): 0.45%
IC50 (B16-F10): 2110 nM
Activity (HepG2 [9]): 4.09%
Activity (HepG2 [10]): 78.89%
IC50 (DU-145): 77 nM
IC50 [5]: 3960 nM
Activity (HepG2 [11]): 17.01%
IC50 (HeLa): 81 nM
IC50 (MDA-MB-231): 720 nM
Activity (HepG2 [12]): 94.12%
Activity (HepG2 [13]): 5.43%
IC50 (MCF7 [1]): 260 nM
IC50 (HepG2 [2]): 320 nM

Structure (SMILES): COc1ccc(N/N=C(\C#N)C(=O)c2cc(OC)c(OC)c(OC)c2)cc1
IC50 (HCT-116): 3190 nM
IC50 (B16-F10): 3260 nM
IC50 (DU-145): 120 nM
IC50 [5]: 4620 nM
IC50 (HeLa): 220 nM
IC50 (MDA-MB-231): 2460 nM
IC50 (MCF7 [1]): 280 nM
IC50 (HepG2 [2]): 440 nM

Structure (SMILES): COc1cc(N/N=C(\C#N)C(=O)c2cc(OC)c(OC)c(OC)c2)cc(OC)c1OC
IC50 (MCF7 [1]): > 10000 nM
IC50 (HepG2 [2]): > 10000 nM

Structure (SMILES): COc1cc(C(=O)/C(C#N)=N/Nc2ccc(C(F)(F)F)cc2)cc(OC)c1OC
IC50 (MCF7 [1]): 3020 nM
IC50 (HepG2 [2]): 2680 nM

Structure (SMILES): COc1cc(C(=O)/C(C#N)=N/Nc2ccc(Cl)cc2Cl)cc(OC)c1OC
IC50 (MCF7 [1]): > 10000 nM
IC50 (HepG2 [2]): > 10000 nM

Structure (SMILES): COc1cc(C(=O)/C(C#N)=N/Nc2ccc(F)cc2)cc(OC)c1OC
IC50 (MCF7 [1]): 9840 nM
IC50 (HepG2 [2]): 9710 nM

Structure (SMILES): COc1cc2c(c(OC)c1OC)-c1ccc(OC)c(=O)cc1[C@@H](NC(C)=O)CC2 [COLCHICINE]
IC50 (HCT-116): 26.2 nM
IC50 (B16-F10): 44.2 nM
IC50 (DU-145): 3.45 nM
IC50 [5]: 227 nM
IC50 (HeLa): 8.89 nM
IC50 (MDA-MB-231): 77.6 nM

Now from value to molecule, other results behind:

IC50 (MCF7 [1]): 5890 nM
IC50 (HepG2 [2]): 6110 nM
Structure (SMILES): COc1cc(C(=O)/C(C#N)=N/Nc2cccc(C)c2)cc(OC)c1OC

IC50 (HepG2 [3]): 1200 nM
IC50 (A2780S): 1880 nM
IC50 (HT-29): 1280 nM
IC50 (A549): 2090 nM
IC50 (MCF7 [1]): 1930 nM
IC50 (MCF7 [4]): 1840 nM
IC50 (SK-OV-3): 1270 nM
IC50 (HepG2 [2]): 1380 nM
Structure (SMILES): COc1ccc(N/C=C(\C#N)C(=O)c2cc(OC)c(OC)c(OC)c2)cc1
IC50 (CHL-1): 1220 nM

IC50 (MCF7 [1]): 8820 nM
IC50 (HepG2 [2]): 6460 nM
Structure (SMILES): COc1cccc(N/N=C(\C#N)C(=O)c2cc(OC)c(OC)c(OC)c2)c1

IC50 (MCF7 [1]): 7010 nM
IC50 (HepG2 [2]): 6620 nM
Structure (SMILES): CCOc1ccc(N/N=C(\C#N)C(=O)c2cc(OC)c(OC)c(OC)c2)cc1

IC50 (MCF7 [1]): > 10000 nM
IC50 (HepG2 [2]): > 10000 nM
Structure (SMILES): COc1cc(C(=O)/C(C#N)=N/Nc2ccc([N+](=O)[O-])cc2)cc(OC)c1OC

IC50 (MCF7 [1]): > 10000 nM
IC50 (HepG2 [2]): > 10000 nM
Structure (SMILES): CCOc1ccccc1N/N=C(\C#N)C(=O)c1cc(OC)c(OC)c(OC)c1
